Assay results taken from US12365928B2, “Scalable biosynthesis of the seaweed neurochemical kainic acid” (The Regents of the University of California, priority 2018, dated 2025).
Entries after “also recorded” stand apart in the source; their conditions may differ.

What was measured:
[1] = molecular target: T1, DsKabA (Digenea simplex, UniProt A0A4D6IA24); experiment: DsKabA activity and substrate specificity assay (LCMS); type: biochemical; conditions: 23° C., 5 h, LCMS (FIG. 8); for turnover to N-prenylated product when L-glutamate is exchanged for another amino acid: 5 mM amino acid, 1 mM DMAPP, 5 mM MgCl2, 20 μM DsKabA
T1 construct: DsKabA p28 For; His6 (N); made in house; host or cells: E. coli BL-21
T1 sequence (A0A4D6IA24 1-439): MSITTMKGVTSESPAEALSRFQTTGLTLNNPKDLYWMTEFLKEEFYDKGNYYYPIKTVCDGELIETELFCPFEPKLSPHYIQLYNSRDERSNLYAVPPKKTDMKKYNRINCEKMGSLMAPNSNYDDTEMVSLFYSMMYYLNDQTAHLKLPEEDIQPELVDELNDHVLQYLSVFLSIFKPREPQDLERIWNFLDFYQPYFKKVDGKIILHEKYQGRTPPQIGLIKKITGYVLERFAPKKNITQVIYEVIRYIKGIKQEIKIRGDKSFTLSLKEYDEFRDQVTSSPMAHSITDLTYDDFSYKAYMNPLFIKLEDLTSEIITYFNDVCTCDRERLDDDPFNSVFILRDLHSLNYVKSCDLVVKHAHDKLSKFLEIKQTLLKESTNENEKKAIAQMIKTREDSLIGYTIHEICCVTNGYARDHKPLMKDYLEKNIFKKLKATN
Protocol: To test DsKabA activity and substrate specificity, a 50 μL reaction containing 5 mM MgCl2, 5 mM amino acid (L-Glu, D-Glu, L-Gln, L-Asp, L-Asn, or Gly), 1 mM prenyl donor (DMAPP or GPP), and 20 μM DsKabA in a buffer of 300 mM KCl and 50 mM HEPES pH 8.0 was incubated at 23° C. for 5 h. One equivalent of 0.1% formic acid in H2O was added and filtered with a VWR PES 3 k 500 μL spin column. The flow through was analyzed by an Agilent Technologies 1200 Series system with a diode-array detector coupled to an Agilent Technologies 6530 accurate-mass Q-TOF LCMS using the following method on a Synergi Polar-RP 4μ 250×4.6 mm column at 0.75 mL/min: 0% B (4.5 min), 0 to 5% B (0.5 min), 5 to 26% B (9 min), 26 to 80% B (9 min), 80 to 100% B (1 min), 100% B (1.5 min), 100 to 0% B (2.5 min), 0% B (2 min), wherein A=0.1% aqueous formic acid, and B=0.1% formic acid in acetonitrile.

[2] = test system: ionotropic glutamate receptor (iGluR); conditions: literature statement; cited from earlier work
[3] = humans in vivo; literature statement; cited from earlier work

N[C@H](CCC(=O)O)C(=O)O [D-glutamate]
turnover to N-prenylated product when L-glutamate is exchanged for another amino acid [1]: diminished turnover

CC(C)=CCC/C(C)=C/COP(=O)(O)OP(=O)(O)O [GPP]
product formed when DMAPP is replaced by another prenyl donor ([1]; 1 mM prenyl donor with 5 mM L-glutamate, 20 μM DsKabA): formation of N-geranyl-L-glutamic acid (L-NGG)

NC(=O)C[C@H](N)C(=O)O [L-asparagine]
turnover to N-prenylated product when L-glutamate is exchanged for another amino acid [1]: did not produce appreciable amounts of N-prenylated product

N[C@@H](CC(=O)O)C(=O)O [L-aspartate]
turnover to N-prenylated product when L-glutamate is exchanged for another amino acid [1]: did not produce appreciable amounts of N-prenylated product

NC(=O)CC[C@H](N)C(=O)O [L-glutamine]
turnover to N-prenylated product when L-glutamate is exchanged for another amino acid [1]: did not produce appreciable amounts of N-prenylated product

O=C(O)C[C@@H]1[C@@H](C(=O)O)NC[C@@H]1c1ccc(C(=O)O)[nH]c1=O [acromelic acid]
iGluR bioactivity [2]: iGluR agonistic bioactivity

C/C(=C/C=C/[C@@H](C)C(=O)O)[C@H]1CN[C@H](C(=O)O)[C@H]1CC(=O)O [domoic acid]
excitotoxic / neurological effects [3]: causes severe neurological problems

NCC(=O)O [glycine]
turnover to N-prenylated product when L-glutamate is exchanged for another amino acid [1]: did not produce appreciable amounts of N-prenylated product

C=C(C)[C@H]1CN[C@H](C(=O)O)[C@H]1CC(=O)O [kainic acid]
excitotoxic / neurological effects [3]: does not appear to produce excitotoxic effects
iGluR bioactivity [2]: ionotropic glutamate receptor (iGluR) agonist; also recorded: agonistic activity

kainic acid lactone
iGluR bioactivity [2]: iGluR antagonist
